US20240182453A1, “NOVEL SUBSTITUTED PYRAZINE-CARBOXAMIDE DERIVATIVES” (Boehringer Ingelheim International GmbH, priority 2022, published 2024)

What follows are compounds tested against human metabotropic Glutamate 4 receptor (mGluR4) (Homo sapiens (Human), UniProt Q14833) (assay: Assay A: in vitro testing of mGluR4 potency (glutamate-induced cAMP lowering, HTRF cAMP)). Conditions: HEK293 cells overexpressing human mGluR4; 10 uM L-glutamic acid, 1 uM forskolin; compounds of the present invention.
Chain of human metabotropic Glutamate 4 receptor (mGluR4) (Q14833 33-912): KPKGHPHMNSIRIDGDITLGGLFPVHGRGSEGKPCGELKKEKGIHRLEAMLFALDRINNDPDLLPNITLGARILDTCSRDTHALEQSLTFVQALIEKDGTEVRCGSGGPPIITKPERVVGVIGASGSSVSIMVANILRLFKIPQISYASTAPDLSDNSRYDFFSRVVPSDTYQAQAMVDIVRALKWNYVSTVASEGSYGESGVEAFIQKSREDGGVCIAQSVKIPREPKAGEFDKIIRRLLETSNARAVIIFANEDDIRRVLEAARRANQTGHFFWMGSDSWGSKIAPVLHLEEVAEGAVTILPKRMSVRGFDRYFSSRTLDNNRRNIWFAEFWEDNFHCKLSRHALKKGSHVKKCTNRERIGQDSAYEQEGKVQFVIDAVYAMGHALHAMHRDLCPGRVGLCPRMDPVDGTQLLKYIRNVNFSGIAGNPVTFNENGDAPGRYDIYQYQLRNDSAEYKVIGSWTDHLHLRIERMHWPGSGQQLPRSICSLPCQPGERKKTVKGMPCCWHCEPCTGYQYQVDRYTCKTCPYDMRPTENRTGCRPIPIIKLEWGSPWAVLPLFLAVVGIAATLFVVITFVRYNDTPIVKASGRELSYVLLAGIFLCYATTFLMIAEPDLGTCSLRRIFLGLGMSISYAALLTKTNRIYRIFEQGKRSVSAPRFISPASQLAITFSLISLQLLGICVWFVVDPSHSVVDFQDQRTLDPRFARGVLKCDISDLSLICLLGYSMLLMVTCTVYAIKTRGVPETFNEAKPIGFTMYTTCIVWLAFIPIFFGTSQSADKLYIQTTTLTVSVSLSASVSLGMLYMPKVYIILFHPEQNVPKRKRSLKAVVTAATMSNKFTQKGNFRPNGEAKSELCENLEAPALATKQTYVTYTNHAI
Assay type: cell-based
Procedure, shortened: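 HEK293 cells overexpressing human mGluR4 treated 30 min at room temperature with compound plus 10 uM L-glutamate, 1 uM forskolin, 0.5 mM IBMX, 0.1% BSA, 1% DMSO. cAMP read by HTRF (665/615 nm ratio), normalized to glutamate (100%) and no-glutamate (0%) controls as percent of control.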

| Structure (SMILES) | IC50 [nM] |
| --- | --- |
| CCn1c([C@@H](NC(=O)c2cnc(C)cn2)C(C)(C)O)nc2cc(Cl)ccc21 [Example 81, N-[(1R)-1-(5-chloro-1-ethyl-1H-1,3-benzodiazol-2-yl)-2-hydroxy-2-methylpropyl]-5-methylpyrazine-2-carboxamide] | 14 |
| CCn1c([C@@H](NC(=O)c2cnc(C)cn2)C2CC2)nc2cc(F)ccc21 [Example 1, N-[(S)-cyclopropyl(1-ethyl-5-fluoro-1H-1,3-benzodiazol-2-yl)methyl]-5-methylpyrazine-2-carboxamide] | 4 |
| COCCn1c([C@@H](NC(=O)c2cnc(C)cn2)[C@H]2CCCO2)nc2cc(OC(F)(F)F)ccc21 [Example 89, N-[(R)-[1-(2-methoxyethyl)-5-(trifluoromethoxy)-1H-1,3-benzodiazol-2-yl][(2R)-oxolan-2-yl]methyl]-5-methylpyrazine-2-carboxamide] | 10 |
| Cc1cnc(C(=O)N[C@H](c2nc3cc(OC(F)(F)F)ccc3n2C)[C@@H]2CCCOC2)cn1 [Example 78, 5-methyl-N-[(S)-[1-methyl-5-(trifluoromethoxy)-1H-1,3-benzodiazol-2-yl][(3S)-oxan-3-yl]methyl]pyrazine-2-carboxamide] | 13 |
| O=C(N[C@@H](CC1CC1)c1nc2cc(F)ccc2n1CCOC(F)F)c1cnc(C(F)F)cn1 [Example 99, N-[(1S)-2-cyclopropyl-1-{1-[2-(difluoromethoxy)ethyl]-5-fluoro-1H-1,3-benzodiazol-2-yl}ethyl]-5-(difluoromethyl)pyrazine-2-carboxamide] | 9 |
| Cc1cnc(C(=O)N[C@@H](CC2CC2)c2nc3cc(F)ccc3n2CCOC(F)F)cn1 [Example 95, N-[(1S)-2-cyclopropyl-1-{1-[2-(difluoromethoxy)ethyl]-5-fluoro-1H-1,3-benzodiazol-2-yl}ethyl]-5-methylpyrazine-2-carboxamide] | 13 |
| COCCn1c(C(NC(=O)c2cnc(C(F)F)cn2)C2CCOC2)nc2cc(F)ccc21 (single isomer, unassigned) [Example 48-2, 5-(difluoromethyl)-N-{[5-fluoro-1-(2-methoxyethyl)-1H-1,3-benzodiazol-2-yl](oxolan-3-yl)methyl} pyrazine-2-carboxamide] | 60 |
| Cc1cnc(C(=O)N[C@H](c2nc3cc(Cl)c(F)cc3n2C)C2CC2)cn1 [Example 100, N-[(S)-(5-chloro-6-fluoro-1-methyl-1H-1,3-benzodiazol-2-yl)(cyclopropyl)methyl]-5-methylpyrazine-2-carboxamide] | 19 |
| CCn1c([C@@H](NC(=O)c2cnc(C)cn2)[C@]2(O)CCOC2)nc2ccc(C(F)(F)F)cc21 [Example 155, N-[(R)-[1-ethyl-6-(trifluoromethyl)-1H-1,3-benzodiazol-2-yl][(3R)-3-hydroxyoxolan-3-yl]methyl]-5-methylpyrazine-2-carboxamide] | 63 |
| Cc1cnc(C(=O)N[C@H](c2nc3cc(C)c(F)cc3n2CC(F)F)C2CC2)cn1 [Example 15, N-[(S)-cyclopropyl[1-(2,2-difluoroethyl)-6-fluoro-5-methyl-1H-1,3-benzodiazol-2-yl]methyl]-5-methylpyrazine-2-carboxamide] | 3 |
| Cc1cnc(C(=O)N[C@H](c2nc3cc(F)ccc3n2CC(F)(F)F)C2CC2)cn1 [Example 27, N-[(S)-cyclopropyl[5-fluoro-1-(2,2,2-trifluoroethyl)-1H-1,3-benzodiazol-2-yl]methyl]-5-methylpyrazine-2-carboxamide] | 5 |
| Cc1cnc(C(=O)N[C@H](c2nc3c(C4CC4)c(Br)ccc3n2C)C2CC2)cn1 [Example 122, N-[(S)-(5-bromo-4-cyclopropyl-1-methyl-1H-1,3-benzodiazol-2-yl)(cyclopropyl)methyl]-5-methylpyrazine-2-carboxamide] | 1 |
| CCn1c([C@@H](NC(=O)c2cnc(C)cn2)C2CC2)nc2c(C)c(C#N)ccc21 [Example 38, N-[(S)-(5-cyano-1-ethyl-4-methyl-1H-1,3-benzodiazol-2-yl)(cyclopropyl)methyl]-5-methylpyrazine-2-carboxamide] | 5 |
| Cn1c([C@H](CC2CC2)NC(=O)c2cnc(C(F)F)cn2)nc2cc(F)c(F)cc21 [Example 94, N-[(1S)-2-cyclopropyl-1-(5,6-difluoro-1-methyl-1H-1,3-benzodiazol-2-yl)ethyl]-5-(difluoromethyl)pyrazine-2-carboxamide] | 16 |
| COCCn1c([C@@H](NC(=O)c2cnc(C(F)F)cn2)[C@@H]2CCOC2)nc2cc(C(F)(F)F)ccc21 [Example 90, 5-(difluoromethyl)-N-[(S)-[1-(2-methoxyethyl)-5-(trifluoromethyl)-1H-1,3-benzodiazol-2-yl][(3S)-oxolan-3-yl]methyl]pyrazine-2-carboxamide] | 6 |
| Cn1c([C@@H](NC(=O)c2cnc(C(F)F)cn2)[C@H]2CCCO2)nc2cc(OC(F)(F)F)ccc21 [Example 113, 5-(difluoromethyl)-N-[(R)-[1-methyl-5-(trifluoromethoxy)-1H-1,3-benzodiazol-2-yl][(2R)-oxolan-2-yl]methyl]pyrazine-2-carboxamide] | 17 |
| Cc1cnc(C(=O)N[C@H](c2nc3cc(Br)c(F)cc3n2C)C2CC2)cn1 [Example 52, N-[(S)-(5-bromo-6-fluoro-1-methyl-1H-1,3-benzodiazol-2-yl) (cyclopropyl)methyl]-5-methylpyrazine-2-carboxamide] | 5 |
| CCn1c([C@@H](NC(=O)c2cnc(C)cn2)[C@H]2CCOC2)nc2cc(OC(F)(F)F)ccc21 (single isomer, unassigned) [Example 70] | 12 |
| Cc1cnc(C(=O)N[C@H](c2nc3ccc(C(F)(F)F)cc3n2C)C2CC2)cn1 [Example 63, N-[(S)-cyclopropyl[1-methyl-6-(trifluoromethyl)-1H-1,3-benzodiazol-2-yl]methyl]-5-methylpyrazine-2-carboxamide] | 14 |
| CCn1c([C@@H](NC(=O)c2cnc(C)cn2)[C@]2(O)CCOC2)nc2cc(C(F)(F)F)ccc21 [Example 156, N-[(R)-[1-ethyl-5-(trifluoromethyl)-1H-1,3-benzodiazol-2-yl][(3R)-3-hydroxyoxolan-3-yl]methyl]-5-methylpyrazine-2-carboxamide] | 39 |
| CO[C@H](C)[C@H](NC(=O)c1cnc(C)cn1)c1nc2cc(OC(F)(F)F)ccc2n1CCOC(C)C [Example 41, N-[(1R,2R)-2-methoxy-1-{1-[2-(propan-2-yloxy)ethyl]-5-(trifluoromethoxy)-1H-1,3-benzodiazol-2-yl}propyl]-5-methylpyrazine-2-carboxamide] | 2 |
| Cc1cnc(C(=O)N[C@H](c2nc3c(Cl)c(F)ccc3n2C)C2CC2)cn1 [Example 107, N-[(S)-(4-chloro-5-fluoro-1-methyl-1H-1,3-benzodiazol-2-yl)(cyclopropyl)methyl]-5-methylpyrazine-2-carboxamide] | 13 |
| Cc1cnc(C(=O)N[C@H](c2nc3cc(C(F)(F)F)ccc3n2CC(F)F)[C@H]2CCOC2)cn1 [Example 142, N-[(S)-[1-(2,2-difluoroethyl)-5-(trifluoromethyl)-1H-1,3-benzodiazol-2-yl][(3R)-oxolan-3-yl]methyl]-5-methylpyrazine-2-carboxamide] | 8 |
| Cc1cnc(C(=O)N[C@H](c2nc3cc(F)ccc3n2CC(F)F)C2CC2)cn1 [Example 10, N-[(S)-cyclopropyl[1-(2,2-difluoroethyl)-5-fluoro-1H-1,3-benzodiazol-2-yl]methyl]-5-methylpyrazine-2-carboxamide] | 5 |
